The source made the active and inactive calls. The calls are words filed in the database; no cut-off is given here.
Columns and labels:
[1] = system: RAW264.7; assay: Antiinflammatory activity against LPS-induced mouse RAW264.7 cells assessed as decrease in phosphorylated eIF4E expression at 10 to 20 uM by Western blot analysis; format: functional, cell-based; details: dose 10-20 µM
[2] = system: Mus musculus; assay: Antiinflammatory activity in LPS-induced BALB/c sepsis mouse model assessed as increase in GSH level in serum at 20 mg/kg, po preadministered with compound for 14 days followed by LPS stimulation and measured after 6 hrs; format: functional, organism-based; details: time 342.0 hrs
[3] = system: Mus musculus; assay: Antiinflammatory activity in LPS-induced BALB/c sepsis mouse model assessed as decrease in serum AST level at 10 to 20 mg/kg, po preadministered with compound for 14 days followed by LPS stimulation and measured after 6 hrs; format: functional, organism-based; details: dose 10-20 mg/kg, time 342.0 hrs
[4] = Cmax in Sprague-Dawley rat at 20 mg/kg, po measured after 48 hrs; format: ADME, organism-based; details: in vivo
[5] = system: Mus musculus; assay: Antiinflammatory activity in LPS-induced BALB/c sepsis mouse model assessed as increase in SOD level in serum at 20 mg/kg, po preadministered with compound for 14 days followed by LPS stimulation and measured after 6 hrs; format: functional, organism-based; details: time 342.0 hrs
[6] = system: Mus musculus; assay: Antiinflammatory activity in LPS-induced BALB/c sepsis mouse model assessed as decrease in serum TNF-alpha level at 20 mg/kg, po preadministered with compound for 14 days followed by LPS stimulation and measured after 6 hrs by ELISA; format: functional, organism-based; details: time 342.0 hrs
[7] = Half-life in Sprague-Dawley rat at 5 mg/kg, iv measured after 48 hrs; format: ADME, organism-based; details: in vivo
[8] = system: Mus musculus; assay: Antiinflammatory activity in LPS-induced BALB/c sepsis mouse model assessed as decrease in inflammatory cells in spleen at 10 to 20 mg/kg, po preadministered with compound for 14 days followed by LPS stimulation and measured after 6 hrs by H&E staining based analysis; format: functional, organism-based; details: dose 10-20 mg/kg, time 342.0 hrs
[9] = system: Mus musculus; assay: Antiinflammatory activity in LPS-induced BALB/c sepsis mouse model assessed as reversal of LPS-induced lung […] index at 20 mg/kg, po preadministered with compound for 14 days followed by LPS stimulation and measured after 6 hrs; format: functional, organism-based; details: time 342.0 hrs
[10] = system: RAW264.7; assay: Antiinflammatory activity against LPS-induced mouse RAW264.7 cells assessed as decrease in iNOS expression at 10 to 20 uM by Western blot analysis; format: functional, cell-based; details: dose 10-20 µM
[11] = system: RAW264.7; assay: Antiinflammatory activity against LPS-induced mouse RAW264.7 cells assessed as inhibition of phosphorylated eIF4E expression preincubated for 1 hrs followed by LPS stimulation and measured after 1 hrs by DAPI staining based immunofluorescence analysis; format: functional, cell-based; details: dose 5-20 µM, time 2.0 hrs
[12] = system: Mus musculus; assay: Antiinflammatory activity in LPS-induced BALB/c sepsis mouse model assessed as decrease in serum BUN level at 10 to 20 mg/kg, po preadministered with compound for 14 days followed by LPS stimulation and measured after 6 hrs; format: functional, organism-based; details: dose 10-20 mg/kg, time 342.0 hrs
[13] = Cmax in Sprague-Dawley rat at 5 mg/kg, iv measured after 48 hrs; format: ADME, organism-based; details: in vivo
[14] = system: RAW264.7; assay: Antiinflammatory activity in LPS-induced mouse RAW264.7 cells assessed as reduction in ROS level at 5 to 20 uM pretreated with compound followed by LPS stimulation and measured after 1 hrs by flow cytometric analysis; format: functional, cell-based; details: dose 5-20 µM
[15] = system: Mus musculus; assay: Antiinflammatory activity in LPS-induced BALB/c sepsis mouse model assessed as decrease in serum creatinine level at 10 to 20 mg/kg, po preadministered with compound for 14 days followed by LPS stimulation and measured after 6 hrs; format: functional, organism-based; details: dose 10-20 mg/kg, time 342.0 hrs
[16] = system: RAW264.7; assay: Antiinflammatory activity against LPS-induced mouse RAW264.7 cells assessed as decrease in COX-2 expression at 10 to 20 uM by Western blot analysis; format: functional, cell-based; details: dose 10-20 µM
[17] = system: Mus musculus; assay: Antiinflammatory activity in LPS-induced BALB/c sepsis mouse model assessed as decrease in IL-6 level in spleen at 10 to 20 mg/kg, po preadministered with compound for 14 days followed by LPS stimulation and measured after 6 hrs by Western blot analysis; format: functional, organism-based; details: dose 10-20 mg/kg, time 342.0 hrs
[18] = AUC (0 to t) in Sprague-Dawley rat at 5 mg/kg, iv measured after 48 hrs; format: ADME, organism-based; details: in vivo
[19] = Clearance in Sprague-Dawley rat at 5 mg/kg, iv measured after 48 hrs; format: ADME, organism-based; details: in vivo
[20] = biological target: MAP kinase-interacting serine/threonine-protein kinase 1 (Homo sapiens, UniProt Q9BUB5); assay: Inhibition of MNK1 (unknown origin) incubated for 60 mins in presence of ATP by HTRF assay
MAP kinase-interacting serine/threonine-protein kinase 1, sequence (Q9BUB5 whole entry): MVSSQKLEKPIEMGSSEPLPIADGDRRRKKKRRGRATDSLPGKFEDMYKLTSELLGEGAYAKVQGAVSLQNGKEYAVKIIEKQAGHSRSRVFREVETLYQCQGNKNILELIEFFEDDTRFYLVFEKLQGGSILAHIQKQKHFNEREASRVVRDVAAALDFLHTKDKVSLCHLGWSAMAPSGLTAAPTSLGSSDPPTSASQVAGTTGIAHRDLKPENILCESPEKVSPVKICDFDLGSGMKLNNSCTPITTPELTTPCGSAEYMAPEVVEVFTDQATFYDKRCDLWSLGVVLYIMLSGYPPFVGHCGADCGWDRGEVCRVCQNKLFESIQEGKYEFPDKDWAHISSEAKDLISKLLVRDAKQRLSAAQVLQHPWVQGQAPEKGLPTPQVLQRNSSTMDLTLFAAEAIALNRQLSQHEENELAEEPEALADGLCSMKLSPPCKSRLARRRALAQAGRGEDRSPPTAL

[21] = system: RAW264.7; assay: Antiinflammatory activity in LPS-induced mouse RAW264.7 cells assessed as increase in Arg1 protein expression by Western blot analysis; format: functional, cell-based; details: dose <= 20.0 µM
[22] = system: Mus musculus; assay: Antiinflammatory activity in LPS-induced BALB/c sepsis mouse model assessed as decrease in cell gap in spleen at 10 to 20 mg/kg, po preadministered with compound for 14 days followed by LPS stimulation and measured after 6 hrs by H&E staining based analysis; format: functional, organism-based; details: dose 10-20 mg/kg, time 342.0 hrs
[23] = biological target: T1, MAP kinase-interacting serine/threonine-protein kinase 2 (Homo sapiens, UniProt Q9HBH9); assay: Inhibition of MNK2 (unknown origin) incubated for 60 mins in presence of ATP by HTRF assay
Target sequence in this assay (Q9HBH9 whole entry): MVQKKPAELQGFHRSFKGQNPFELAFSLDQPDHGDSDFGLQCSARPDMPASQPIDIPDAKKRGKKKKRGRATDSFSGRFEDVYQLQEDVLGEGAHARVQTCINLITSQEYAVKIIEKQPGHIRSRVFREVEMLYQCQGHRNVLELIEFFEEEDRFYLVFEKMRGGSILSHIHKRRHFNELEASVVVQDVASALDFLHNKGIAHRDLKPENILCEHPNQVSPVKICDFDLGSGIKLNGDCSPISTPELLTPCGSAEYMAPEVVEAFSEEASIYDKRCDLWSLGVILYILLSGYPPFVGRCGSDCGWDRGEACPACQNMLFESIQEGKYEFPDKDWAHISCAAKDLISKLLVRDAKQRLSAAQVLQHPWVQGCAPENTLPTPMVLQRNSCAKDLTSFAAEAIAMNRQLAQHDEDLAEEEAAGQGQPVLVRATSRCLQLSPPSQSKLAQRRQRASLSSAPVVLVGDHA

[24] = system: RAW264.7; assay: Antiinflammatory activity against mouse RAW264.7 cells assessed as inhibition of LPS-NO production at 20 uM by Griess reagent based assay relative to control; format: functional
[25] = system: Mus musculus; assay: Antiinflammatory activity in LPS-induced BALB/c sepsis mouse model assessed as reversal of LPS-induced spleen […] index at 20 mg/kg, po preadministered with compound for 14 days followed by LPS stimulation and measured after 6 hrs; format: functional, organism-based; details: time 342.0 hrs
[26] = biological target: T1, MAP kinase-interacting serine/threonine-protein kinase 2; assay: Inhibition of MNK2 (unknown origin) at 1 uM relative to control
Target sequence in this assay (Q9HBH9 whole entry, looked up): as the sequence (Q9HBH9 whole entry) above

[27] = system: Mus musculus; assay: Antiinflammatory activity in LPS-induced BALB/c sepsis mouse model assessed as decrease in infiltration of macrophages in spleen at 10 to 20 mg/kg, po preadministered with compound for 14 days followed by LPS stimulation and measured after 6 hrs by immunohistochemistry analysis; format: functional, organism-based; details: dose 10-20 mg/kg, time 342.0 hrs
[28] = system: Mus musculus; assay: Antiinflammatory activity in LPS-induced BALB/c sepsis mouse model assessed as decrease in serum IL-6 level at 20 mg/kg, po preadministered with compound for 14 days followed by LPS stimulation and measured after 6 hrs by ELISA; format: functional, organism-based; details: time 342.0 hrs
[29] = system: Mus musculus; assay: Antiinflammatory activity in LPS-induced BALB/c sepsis mouse model assessed as decrease in iNOS level in spleen at 10 to 20 mg/kg, po preadministered with compound for 14 days followed by LPS stimulation and measured after 6 hrs by Western blot analysis; format: functional, organism-based; details: dose 10-20 mg/kg, time 342.0 hrs
[30] = system: Mus musculus; assay: Antiinflammatory activity in LPS-induced BALB/c sepsis mouse model assessed as decrease in serum IL-1beta level at 20 mg/kg, po preadministered with compound for 14 days followed by LPS stimulation and measured after 6 hrs by ELISA; format: functional, organism-based; details: time 342.0 hrs
[31] = AUC (0 to t) in Sprague-Dawley rat at 20 mg/kg, po measured after 48 hrs; format: ADME, organism-based; details: in vivo
[32] = system: Mus musculus; assay: Antiinflammatory activity in LPS-induced BALB/c sepsis mouse model assessed as decrease in phosphorylated eIF4E level in spleen at 10 to 20 mg/kg, po preadministered with compound for 14 days followed by LPS stimulation and measured after 6 hrs by Western blot analysis; format: functional, organism-based; details: dose 10-20 mg/kg, time 342.0 hrs
[33] = system: Mus musculus; assay: Antiinflammatory activity in LPS-induced BALB/c sepsis mouse model assessed as decrease in MDA level in serum at 20 mg/kg, po preadministered with compound for 14 days followed by LPS stimulation and measured after 6 hrs; format: functional, organism-based; details: time 342.0 hrs

SMILES: c1cc(-c2cc(C3CCNCC3)n[nH]2)c2cc[nH]c2n1
- Activity [1]: Active
- Activity [2]: Active
- Activity [3]: Active
- Cmax [4]: 26.2 ng/mL
- Activity [5]: Active
- Activity [6]: Active
- half-life [7]: 5.52 h
- Activity [8]: Active
- Activity [9]: Active
- Activity [10]: Active
- Activity [11]: Dose-Dependent Effect
- Activity [12]: Active
- Cmax [13]: 3580 ng/mL
- Activity [14]: Active
- Activity [15]: Active
- Activity [16]: Active
- Activity [17]: Active
- AUCt [18]: 1618 ng·h/mL
- clearance [19]: 52 mL/min/kg
- IC50 [20]: 121 nM
- Activity [21]: Dose-Dependent Effect
- Activity [22]: Active
- IC50 [23]: 135 nM
- inhibition at 20 µM [24]: 70%
- Activity [25]: Active
- inhibition [26]: 85.8%
- Activity [27]: Active
- Activity [28]: Active
- Activity [29]: Active
- Activity [30]: Active
- AUCt [31]: 755.3 ng·h/mL
- Activity [32]: Active
- Activity [33]: Active

— ChEMBL document CHEMBL5537205, “Discovery of D25, a Potent and Selective MNK Inhibitor for Sepsis-Associated Acute Spleen Injury” (J Med Chem, 2024)
